Tested on: NQO1 positive tumor cell lines MC38, TC-1 and Ag104Ld
Format: cell-based
Procedure: (FIG. 1A) NQO1 positive tumor cell lines MC38, TC-1 and Ag104Ld and NQO1 negative cell lines Panc02 and B16 grown in 48-well plates were treated with β-lap (0-8 μM) for a 3 hr followed by washing and replacing medium. Cell viability was determined by Sulforhodamine B (SRB) Assay 4 days later. […] (FIG. 1C) MC38 cells with CRISPR-based NQO1 Knockout (MC38 NQO1KO #5) planted in 96-well plates were exposed to β-lap for 3 hr and cell survival was assessed 48 hr later. […] (FIG. 1E) MC38 cells were exposed to a lethal dose of β-lap (4 μM) for indicated times, then stained with 7-AAD and Annexin V followed by flow cytometry analysis. […] (FIG. 1H) MC38 and B16 NQO1 #1 cells were exposed to β-lap for a 3 hr. Catalase (1000 U/ml) was added and cell survival was assessed 48 hr later. (FIG. 1I) C57BL/6 mice (n=5/group) were transplanted with MC38 cells and treated with β-lap (0.03 mg, 0.1 mg or 0.3 mg, intratumorally; or 25 mg/kg, i.v.) every other day for four times. […] Tumor growth was monitored twice a week.
(FIG. 8A) NQO1 expression in multiple murine tumor lines was immunoblotted as indicated. […] Drugs were removed and survival assessed 5 days later. (FIG. 8C) Relative H2O2 levels were assessed in various cells treated with β-lap for 3 h at the indicated doses using CellRox-Glo. […] (FIG. 8D) TC-1 cells exposure to β-lap for 12 h, later PARP-1 and Caspase-3 levels were analyzed by western blotting assay. […]
(FIGS. 14A-C) NQO1 cells MC38 (A) and TC-1 (B) and NQO1^− cells B16 (C) were treated for 2 h with various doses of IB-DNQ±DIC (50 μM). Drugs were removed and survival assessed 6 days later. […] (FIGS. 14E-F) Relative NAD^+ (E) or ATP (F) levels were assessed in TC-1 cells exposed to various doses of IB-DNQ for 2 h. […] Comet tail lengths in a.u. were monitored at indicated time; and DSBs quantified by γH2AX foci/nuclei using immunofluorescence at indicated time (FIG. 14H). […]
(FIG. 21A) Viability of murine cell lines following IB-DNQ treatment for 4 h. […] (FIGS. 21D-E) DNA double strand break was assessed via comet assay (FIG. 21D) and γH2AX foci/nuclei immunofluorescence (FIG. 21E). […]

CC1(C)CCC2=C(O1)c1ccccc1C(=O)C2=O [β-lap, β-lapachone]
response to 3 h β-lap exposure (cell viability) (β-lap 0-8 μM, 3 hr, SRB 4 days later): sensitive | cell killing (β-lap 3 h ± DIC 50 μM, survival 5 days later): selectively killed
